Data on 13 compounds can be found in patent US20260108546A1 (ELI LILLY AND COMPANY, priority 2024, published 2026).

For the assay, the target named is T1, hGIP-R (Homo sapiens, UniProt P48546).
T1 construct: expressed in transfected cells; host or cells: HEK-293 clonal cell lines
T1 sequence (P48546 22-466): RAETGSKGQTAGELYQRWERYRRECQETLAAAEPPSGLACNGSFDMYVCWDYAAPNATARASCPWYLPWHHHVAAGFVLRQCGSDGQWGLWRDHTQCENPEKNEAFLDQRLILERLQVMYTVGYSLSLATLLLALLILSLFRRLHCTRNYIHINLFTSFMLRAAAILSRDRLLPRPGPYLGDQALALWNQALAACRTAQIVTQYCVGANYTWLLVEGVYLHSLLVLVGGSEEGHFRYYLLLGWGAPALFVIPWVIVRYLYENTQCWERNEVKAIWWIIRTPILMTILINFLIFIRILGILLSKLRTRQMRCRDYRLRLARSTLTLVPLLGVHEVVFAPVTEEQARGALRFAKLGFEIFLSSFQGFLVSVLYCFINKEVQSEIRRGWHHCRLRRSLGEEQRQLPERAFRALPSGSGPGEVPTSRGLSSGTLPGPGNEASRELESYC
Briefly: Functional hGIP-R Assay (cAMP formation, HTRF). Conditions: for Emax: cAMP efficacy, percent of maximal response to GIP(1-42)OH, 37° C., 0.1% bovine casein, arithmetic mean ± SEM; for EC50: cAMP potency, HEK-293 cells expressing hGIP-R, incubated at 37° C. in the presence of 0.1% bovine casein, geometric mean, read-out: Human GIP-R EC50, nM (SEM, n). Type of assay: cell-based. The procedure, abridged: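 HEK-293 cells expressing hGIP-R were given a 20-point compound series in DMEM with 0.1% casein, 250 μM IBMX, 1% DMSO, 30 min at 37 °C. cAMP was read by HTRF against a standard curve, expressed as % of human GIP (1-42) OH maximum; EC50 and Emax came from four-parameter fits.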
On the technique in general: cAMP levels reflect the balance of adenylyl cyclase and phosphodiesterase activity.

In the case of `Cn1cc(C[C@@H](NC(=O)[C@H]2C[C@@H]2c2ccc(-c3cnc4nn(C)cc4c3)cc2)C(=O)NC(C)(C)Cn2nc(C(F)(F)F)cc2-c2cnn(CC3COC3)c2)cn1` [Example 55, (1S,2S)-N-((R)-1-((2-Methyl-1-(1′-(oxetan-3-ylmethyl)-5-(trifluoromethyl)-1′H,2H-[3,4′-bipyrazol]-2-yl)propan-2-yl)amino)-3-(1-methyl-1H-pyrazol-4-yl)-1-oxopropan-2-yl)-2-(4-(2-methyl-2H-pyrazolo[3,4-b]pyridin-5-yl)phenyl) cyclopropane-1-carboxamide], the Emax amounted to 109 ± 0.179% and the EC50 was found to be 49.1 nM.
For `Cn1cc(C[C@@H](NC(=O)[C@H]2C[C@@H]2c2ccc(-c3cnc4nn(C)cc4c3)cc2)C(=O)NC(C)(C)Cn2nc(C(F)(F)F)cc2-c2cnn3c2CN(C(=O)OC(C)(C)C)CC3)cn1` [Example 56, tert-Butyl 3-(1-(2-methyl-2-((R)-3-(1-methyl-1H-pyrazol-4-yl)-2-((1S,2S)-2-(4-(2-methyl-2H-pyrazolo[3,4-b]pyridin-5-yl)phenyl)cyclopropane-1-carboxamido)propanamido)propyl)-3-(trifluoromethyl)-1H-pyrazol-5-yl)-6,7-dihydropyrazolo[1,5-a]pyrazine-5(4H)-carboxylate], the Emax is 113 ± 10.7% and the EC50 worked out at 84.6 nM.
Take `Cn1cc(C[C@@H](NC(=O)[C@H]2C[C@@H]2c2ccc(-c3cnc4nn(C)cc4c3)cc2)C(=O)NC(C)(C)Cn2nc(C(F)(F)F)cc2-c2cc3c(=O)[nH]cnn3c2)cn1` [Example 57, (1S,2S)-N-((R)-1-((2-Methyl-1-(5-(4-oxo-3,4-dihydropyrrolo[2,1-f][1,2,4]triazin-6-yl)-3-(trifluoromethyl)-1H-pyrazol-1-yl)propan-2-yl)amino)-3-(1-methyl-1H-pyrazol-4-yl)-1-oxopropan-2-yl)-2-(4-(2-methyl-2H-pyrazolo[3,4-b]pyridin-5-yl)phenyl) cyclopropane-1-carboxamide]: the Emax was 112 ± 14.8% and the EC50 was determined as 61 nM.
Consider `Cn1cc(C[C@@H](NC(=O)[C@H]2C[C@@H]2c2ccc(-c3cnc4nn(C)cc4c3)cc2)C(=O)NC(C)(C)Cn2nc(C(F)(F)F)cc2-c2cccn(C)c2=O)cn1` [Example 58, (1S,2S)-N-((R)-1-((2-Methyl-1-(5-(1-methyl-2-oxo-1,2-dihydropyridin-3-yl)-3-(trifluoromethyl)-1H-pyrazol-1-yl)propan-2-yl)amino)-3-(1-methyl-1H-pyrazol-4-yl)-1-oxopropan-2-yl)-2-(4-(2-methyl-2H-pyrazolo[3,4-b]pyridin-5-yl)phenyl) cyclopropane-1-carboxamide], for which the Emax came out at 110 ± 1.71% and the EC50 came out at 23.8 nM.
With `Cn1cc(C[C@@H](NC(=O)[C@H]2C[C@@H]2c2ccc(-c3cnc4nn(C)cc4c3)cc2)C(=O)NC(C)(C)Cn2nc(C(F)(F)F)cc2-c2ccc(=O)[nH]c2)cn1` [Example 59, (1S,2S)-N-((R)-1-((2-Methyl-1-(5-(6-oxo-1,6-dihydropyridin-3-yl)-3-(trifluoromethyl)-1H-pyrazol-1-yl)propan-2-yl)amino)-3-(1-methyl-1H-pyrazol-4-yl)-1-oxopropan-2-yl)-2-(4-(2-methyl-2H-pyrazolo[3,4-b]pyridin-5-yl)phenyl) cyclopropane-1-carboxamide], the Emax is 122 ± 2.6% and the concentration for a half-maximal effect (EC50) was 49.1 nM.
Consider `CN(C(=O)[C@H]1C[C@@H]1c1ccc(-c2cnc3nn(C)cc3c2)cc1F)[C@H](Cc1cnn(C)c1)C(=O)NC(C)(C)Cn1nc(C(F)(F)F)cc1-c1ccc(=O)n(C)c1` [Example 61, (1S,2S)-2-(2-Fluoro-4-(2-methyl-2H-pyrazolo [3,4-b]pyridin-5-yl)phenyl)-N-methyl-N-((R)-1-((2-methyl-1-(5-(1-methyl-6-oxo-1,6-dihydropyridin-3-yl)-3-(trifluoromethyl)-1H-pyrazol-1-yl)propan-2-yl)amino)-3-(1-methyl-1H-pyrazol-4-yl)-1-oxopropan-2-yl) cyclopropane-1-carboxamide], for which the Emax was 88.5 ± 2.66% and the EC50 stood at 56.8 nM.
Consider `Cn1cc2cc(-c3ccc([C@H]4C[C@@H]4C(=O)N[C@H](Cc4cnc5ncccn45)C(=O)NC(C)(C)Cn4nc(C(F)(F)F)cc4-c4ccc(=O)n(C)c4)cc3)cnc2n1` [Example 62, (1S,2S)-N-((R)-3-(imidazo[1,2-a]pyrimidin-3-yl)-1-((2-methyl-1-(5-(1-methyl-6-oxo-1,6-dihydropyridin-3-yl)-3-(trifluoromethyl)-1H-pyrazol-1-yl)propan-2-yl)amino)-1-oxopropan-2-yl)-2-(4-(2-methyl-2H-pyrazolo[3,4-b]pyridin-5-yl)phenyl) cyclopropane-1-carboxamide], for which the maximal response (Emax) is 67.8 ± 10.2% and the EC50 worked out at 17.5 nM.
For `Cn1cc2cc(-c3ccc([C@H]4C[C@@]45CCN([C@H](Cc4cnn(C(F)F)c4)C(=O)NC(C)(C)Cn4nc(C(F)(F)F)cc4-c4ccc(=O)n(C)c4)C5=O)cc3)cnc2n1` [Example 63, (R)-3-(1-(Difluoromethyl)-1H-pyrazol-4-yl)-N-(2-methyl-1-(5-(1-methyl-6-oxo-1,6-dihydropyridin-3-yl)-3-(trifluoromethyl)-1H-pyrazol-1-yl)propan-2-yl)-2-((1R,3R)-1-(4-(2-methyl-2H-pyrazolo[3,4-b]pyridin-5-yl)phenyl)-4-oxo-5-azaspiro[2.4]heptan-5-yl)propanamide], the Emax came out at 62.1 ± 3.55% and the EC50 is 21.6 nM.
Turning to `Cn1cc(C[C@@H](NC(=O)[C@H]2C[C@@H]2c2ccc(-c3cnc4nn(C)cc4c3)cc2)C(=O)NC(C)(C)Cn2nc(C(F)(F)F)cc2-c2cccc(=O)[nH]2)cn1` [Example 64, (1S,2S)-N—((R)-1-((2-Methyl-1-(5-(6-oxo-1,6-dihydropyridin-2-yl)-3-(trifluoromethyl)-1H-pyrazol-1-yl)propan-2-yl)amino)-3-(1-methyl-1H-pyrazol-4-yl)-1-oxopropan-2-yl)-2-(4-(2-methyl-2H-pyrazolo[3,4-b]pyridin-5-yl)phenyl)cyclopropane-1-carboxamide], the Emax was 128% and the EC50 was found to be 61.9 nM.
In the case of `COCn1ncc(-c2cc(C(F)(F)F)nn2CC(C)(C)NC(=O)[C@@H](Cc2cnn(C)c2)NC(=O)[C@H]2C[C@@H]2c2ccc(-c3cnc4nn(C)cc4c3)cc2)n1` [Example 65, (1S,2S)-N—((R)-1-((1-(5-(2-(Methoxymethyl)-2H-1,2,3-triazol-4-yl)-3-(trifluoromethyl)-1H-pyrazol-1-yl)-2-methylpropan-2-yl)amino)-3-(1-methyl-1H-pyrazol-4-yl)-1-oxopropan-2-yl)-2-(4-(2-methyl-2H-pyrazolo[3,4-b]pyridin-5-yl)phenyl)cyclopropane-1-carboxamide], the Emax worked out at 113 ± 4.23% and the EC50 is 38.1 nM.
Regarding `Cn1cc(C[C@@H](NC(=O)[C@H]2C[C@@H]2c2ccc(-c3cnc4nn(C)cc4c3)cc2)C(=O)NC(C)(C)Cn2nc(C(F)(F)F)cc2-c2cnn(C)n2)cn1` [Example 66, (1S,2S)-N—((R)-1-((2-Methyl-1-(5-(2-methyl-2H-1,2,3-triazol-4-yl)-3-(trifluoromethyl)-1H-pyrazol-1-yl)propan-2-yl)amino)-3-(1-methyl-1H-pyrazol-4-yl)-1-oxopropan-2-yl)-2-(4-(2-methyl-2H-pyrazolo[3,4-b]pyridin-5-yl)phenyl)cyclopropane-1-carboxamide], the Emax stood at 118 ± 0.533% and the EC50 was 99.3 nM.
For the compound `Cn1cc(C[C@@H](NC(=O)[C@H]2C[C@@H]2c2ccc(-c3cnc4nn(C)cc4c3)cc2)C(=O)NC(C)(C)Cn2nc(C(F)(F)F)cc2-c2ccn(C[C@H]3C[C@H](F)C3)n2)cn1` [Example 67, (1S,2S)-N—((R)-1-((1-(1-(((trans)-3-fluorocyclobutyl)methyl)-5′-(trifluoromethyl)-1H,2′H-[3,3′-bipyrazol]-2′-yl)-2-methylpropan-2-yl)amino)-3-(1-methyl-1H-pyrazol-4-yl)-1-oxopropan-2-yl)-2-(4-(2-methyl-2H-pyrazolo[3,4-b]pyridin-5-yl)phenyl)cyclopropane-1-carboxamide], the Emax came to 115 ± 8.68% and the EC50 came to 45 nM.
`CC(C)(Cn1nc(C(F)(F)F)cc1-c1cn[nH]n1)NC(=O)[C@@H](Cc1cnc2ncccn12)NC(=O)[C@H]1C[C@@H]1c1ccc(-c2cnc3nc(C(F)(F)F)cn3c2)cc1` [Example 68, (1S,2S)-N—((R)-1-((1-(5-(2H-1,2,3-Triazol-4-yl)-3-(trifluoromethyl)-1H-pyrazol-1-yl)-2-methylpropan-2-yl)amino)-3-(imidazo[1,2-a]pyrimidin-3-yl)-1-oxopropan-2-yl)-2-(4-(2-(trifluoromethyl)imidazo[1,2-a]pyrimidin-6-yl)phenyl)cyclopropane-1-carboxamide]: the Emax is 86.9 ± 7.93% and the EC50 came out at 0.904 nM.

For orientation: Emax means the maximal effect, on the per cent scale that the assay sets. Broadly, the EC50 is the concentration needed to bring the measured effect to its halfway point.
